Laboratory results reported in patent US11034980B2, “Microbial engineering for the production of isoprenoids” (Massachusetts Institute of Technology, priority 2018, dated 2021).
Like-named read-outs stand apart in the source and are kept apart here.

Tests used:
[1] = system: multi-enzyme system (CK, IPK, IDI, IspA, GGPPS, TDS); assay: Titration of cofactors and potential inhibitors in the taxadiene multi-enzyme system; type: biochemical
Protocol: The multi-enzyme system reactions were carried out in 50 mM ammonium bicarbonate (pH 7.4) with 10 mM MgCl2, 2 mM MnCl2, 0.05% (w/v) Tween 20, 10 mM ATP, and 5 mM isoprenol at 30° C. unless otherwise stated. The solution in glass GC vials (Agilent) were overlaid with 1/10 volume of dodecane to entrap the volatile isoprenoids. An initial estimated optimal concentration of each enzyme was calculated using the rates determined by individual enzyme assays. The final optimized enzyme concentrations were determined to be 25 μg/mL CK, 15 μg/mL IPK, 25.4 μg/mL IDI, 37.15 μg/mL IspA, 8.15 μg/mL GGPPS, and 25 μg/mL for TDS.
A possible explanation for such inhibitions could be that the enzymes would salt out when a combined amount of >20 mM ATP+ADP (sodium salts) are added to the mixture. […] Since 8 moles of ATP are necessary for the synthesis of 1 mole of taxadiene, salting out of proteins by high concentrations of ATP sodium salt limits that maximum titer of taxadiene that can be achieved using this system making ATP the limiting reagent. […] Furthermore, the consumption of isoprenol in this process could not be determined due to the high variability the utilized GC-FID assay which could not accurately measure such small changes in isoprenol concentration.

[2] = biological target: Farnesyl pyrophosphate synthase (IspA) (Escherichia coli, UniProt P22939); conditions: cited from earlier work; for Km: Ref Ku et al., 2005, Weaver et al., 2015
[3] = biological target: T1, isopentenyl phosphate kinase (IPK) (Arabidopsis thaliana, UniProt Q8H1F7); assay: IPK kinetics by ATP consumption, PK-LDH coupled NADH assay; type: biochemical; conditions: 10 mM ATP, 30° C., pH 7.4
T1 construct: Arabidopsis thaliana (AAN12957.1), codon optimized; made in house; host or cells: E. coli BL21 (DE3)
T1 sequence (Q8H1F7 1-332): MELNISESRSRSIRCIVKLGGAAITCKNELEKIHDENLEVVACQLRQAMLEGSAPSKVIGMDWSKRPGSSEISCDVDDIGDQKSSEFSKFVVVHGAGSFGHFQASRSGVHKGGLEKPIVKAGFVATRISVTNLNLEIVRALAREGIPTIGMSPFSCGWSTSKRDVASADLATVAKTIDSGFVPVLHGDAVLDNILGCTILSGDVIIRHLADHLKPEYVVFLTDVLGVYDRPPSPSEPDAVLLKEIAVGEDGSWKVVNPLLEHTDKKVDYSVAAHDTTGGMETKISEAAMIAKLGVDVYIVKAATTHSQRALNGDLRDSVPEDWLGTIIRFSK
Protocol: A single colony from each strain containing one plasmid for the expression of a single enzyme was inoculated into 5 mL of sterile LB media (BD Sciences) with kanamycin and grown overnight at 37° C. One milliliter was then inoculated into a 1 L flask containing 200 mL of sterile SOB media (AMERSCO) with kanamycin. The culture was grown at 30° C. until an optical density (OD) of 0.4-0.6 (λ=600 nm). At this point protein production was induced by the addition of IPTG for a final concentration of 0.1 mM and continued at 30° C. for 3 h. Cells were harvested by centrifugation at 3750 rpm in an Allegra X12R centrifuge (Beckman-Coulter). The supernatant was removed and the cell pellets were frozen at −20° C. until purification. Proteins were visualized by SDS-PAGE performed accordingly to the manufacturer's guidelines (Bio-rad). Gradient (4-20%) gels were purchased from Biorad, as were the Kaleidoscope pre-stained protein ladder, Laemmli 4× sample buffer, Tris-glycine-SDS buffer, and mini-protean electrophoresis chambers. Gels were stained using Instant-Blue (Expedeon). Protein concentrations were very roughly estimated from the gel using Image J (NIH) in order to determine an appropriate amount of resin for purification. Protein Purification All purification steps were performed in a single day on ice and in a cold room when possible. Cell pellets were thawed and resuspended in 30 mL of NPI-10 buffer (50 mM NaH2PO4, 300 mM NaCl, 10 mM imidazole, pH 8.0) and supplemented with 0.5 mM PMSF immediately prior to cell lysis. Cells were lysed by 2-3 passages through an EmulsiFlex-C5 high-pressure homogenizer (Avestin). Lysates were then centrifuged at 4 C for 15 min to remove cellular debris. The clarified lysate was loaded onto a Ni-NTA resin (Gold Bio, capacity 50 mg/mL) which was housed in a gravity column (Thermofisher) and was pre-equilibrated with 10 column volumes (CV) of NPI-10 buffer. The column was then washed with 10 CV of NPI-20 buffer (20 mM imidazole). The enzyme was then eluted from the column by 3 CV using NPI-250 buffer (250 mM imidazole). Enzymes were then exchanged into 50 mM Tris-HCl pH 7.5 using 10 kDa Microseps (Millipore) by centrifugation and repeated buffer exchanges until the imidazole was calculated to be under 1 mM. […] Enzyme concentration was determined using a bicinchoninic acid (BCA) assay kit from Pierce using bovine serum albumin as a standard (BSA). […] The kinetics for CK were previously determined as described. The kinetics for IPK were determined by ATP consumption using a pyruvate kinase (PK) lactate dehydrogenase (LDH) coupled assay (FIGS. 16A & 16B). […] NADH was made fresh each time and the appropriate concentration was determined by constructing a standard curve using a SpectraMax M3 and selecting the highest value in the linear range. […]

[4] = system: Geranylgeranyl pyrophosphate synthase (GGPPS); conditions: reported elsewhere (Hefner et al., 1998); cited from earlier work
[5] = biological target: T2, choline kinase from Saccharomyces cerevisiae (ScCK) (Saccharomyces cerevisiae, UniProt P20485); conditions: Table 6, Ref Chatzivasileiou et al., 2018; cited from earlier work
T2 construct: S. cerevisiae (AAA34499.1), codon optimized; made in house; host or cells: E. coli BL21 (DE3)
T2 sequence (P20485 1-582): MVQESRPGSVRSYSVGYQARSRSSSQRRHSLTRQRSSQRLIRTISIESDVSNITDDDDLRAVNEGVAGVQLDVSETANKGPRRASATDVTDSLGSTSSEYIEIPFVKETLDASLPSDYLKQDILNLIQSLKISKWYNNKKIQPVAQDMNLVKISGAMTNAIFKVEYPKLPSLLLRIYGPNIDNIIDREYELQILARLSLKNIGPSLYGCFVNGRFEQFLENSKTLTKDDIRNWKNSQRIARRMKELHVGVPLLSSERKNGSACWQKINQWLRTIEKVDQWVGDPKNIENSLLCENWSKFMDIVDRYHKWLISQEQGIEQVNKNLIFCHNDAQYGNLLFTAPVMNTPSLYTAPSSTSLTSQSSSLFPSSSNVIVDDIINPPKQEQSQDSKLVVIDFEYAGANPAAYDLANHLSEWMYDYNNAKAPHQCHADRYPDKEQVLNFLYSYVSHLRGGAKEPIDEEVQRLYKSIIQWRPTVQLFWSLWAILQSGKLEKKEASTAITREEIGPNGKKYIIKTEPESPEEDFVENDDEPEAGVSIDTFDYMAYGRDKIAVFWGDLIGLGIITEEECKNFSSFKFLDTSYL

[6] = substrate: C=C(C)CCO; assay: In vitro kinetic assay of purified choline kinase with isoprenol or prenol (LC-MS/MS); type: biochemical, Saccharomyces cerevisiae; conditions: other: 37° C., fixed ATP concentration, purified ScCK, pH 7.5
Protocol: (§1) Enzyme assays for screening of isopentenol kinase activity was performed as follows. The purified enzymes were added to the enzyme assay master mix for a final concentration of 2 mM ATP, 10 mM MgCl2, 50 mM NH4HCO3 pH 7.5, and 600 μM isoprenol or prenol. They were incubated overnight at 37° C. The reactions were stopped using 5 volumes of ice-cold acetonitrile and centrifuged to remove precipitated proteins using a plate adaptor at 3273×g for 15 min. The supernatant was transferred to a new microplate and frozen at −80° C. The liquid was removed by a 4.5 L lyophilizer (Labconco) and the samples were resuspended in an equal volume of water and centrifuged again prior to quantification using LC-MS/MS.
(§2) Kinetic enzyme assays were conducted using the standard assay conditions described above with the following changes. First, the linear range of the assay was determined over a 90 min period (FIG. 3). Initial velocity appeared linear over this period. Therefore, kinetic assays were quenched after 30 min. For assays at different temperatures, the standard reaction mixture was used while the temperature was varied using a water bath. […] Afterwards, reactions were performed in the standard reaction mixture with NH4HCO3 buffer was adjusted to the appropriate pH. For Michaelis-Menten kinetics, only the concentration of isoprenol or prenol was varied between 1.5-50 μM.

[7] = substrate: CC(C)=CCO; assay: as above; type: biochemical, Saccharomyces cerevisiae; conditions: other: 37° C., fixed ATP concentration, purified ScCK, pH 7.5
Protocol: as §1, §2

Chain of Farnesyl pyrophosphate synthase (IspA) (P22939 whole entry): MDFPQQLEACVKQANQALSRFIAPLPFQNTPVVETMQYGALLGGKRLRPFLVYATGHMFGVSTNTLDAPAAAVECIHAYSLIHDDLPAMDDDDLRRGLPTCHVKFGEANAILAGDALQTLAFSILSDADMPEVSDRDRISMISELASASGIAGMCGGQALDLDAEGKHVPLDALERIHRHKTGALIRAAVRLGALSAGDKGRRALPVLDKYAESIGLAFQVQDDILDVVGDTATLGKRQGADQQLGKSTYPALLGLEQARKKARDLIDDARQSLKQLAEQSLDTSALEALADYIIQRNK

Nc1ncnc2c1ncn2[C@@H]1O[C@H](COP(=O)(O)OP(=O)(O)O)[C@@H](O)[C@H]1O [ADP, adenosine diphosphate]
effect on taxadiene production ([1]; ADP 0-20 mM in the presence of 10 mM ATP): Some inhibition

Nc1ncnc2c1ncn2[C@@H]1O[C@H](COP(=O)(O)OP(=O)(O)OP(=O)(O)O)[C@@H](O)[C@H]1O [ATP, adenosine triphosphate]
effect on taxadiene production ([1]; 20 mM ATP): completely inhibited
ATP levels that completely inhibited IspA ([2]; Chen et al. (2017)): above 5 mM

CC(C)=CCOP(=O)(O)O [DMAP, dimethylallyl monophosphate]
Km [3]: 35.5 µM
kcat [3]: 53.1 S^−1

CC(C)=CCOP(=O)(O)OP(=O)(O)O [DMAPP, dimethylallyl pyrophosphate]
Km ([2]; reaction IPP + DMAPP): 1.3 µM

CC(C)=CCC/C(C)=C/CC/C(C)=C/COP(=O)(O)OP(=O)(O)O [FPP, farnesyl diphosphate]
Km [4]: 7 µM

CC(C)=CCC/C(C)=C/COP(=O)(O)OP(=O)(O)O [GPP, geranyl diphosphate]
Km ([2]; reaction IPP + GPP): 10.3 µM

C=C(C)CCO [Isoprenol, 3-methyl-3-buten-1-ol]
Km [5]: 4540 µM
kcat [5]: 14.7 S^−1

CC(C)=CCO [Prenol, 3-methyl-2-buten-1-ol]
Km [5]: 1110 µM
kcat [5]: 1.13 S^−1

B1: choline kinase from Saccharomyces cerevisiae (ScCK) (Saccharomyces cerevisiae S288C) (protein)
chain: T2 sequence (P20485 1-582)
notes: S. cerevisiae (AAA34499.1), codon optimized; made in house; host or cells: E. coli BL21 (DE3)
Km [6]: 4539 µM
kcat [6]: 14.7 s⁻¹
Km [7]: 1113 µM
kcat [7]: 1.1 s⁻¹
